Source: patent US20040198639A1, “Preserved and stable compositions containing peptide copper complexes and methods related thereto” (ProCyte Corporation, priority 2003, published 2004)

Assay: Storage stability of Example 1 solution: amounts of peptide copper complex and preservatives over time
Type: physicochemical
Procedure: The preservatives used are non-formaldehyde-donating preservatives. The solution was placed in a series of small sealed glass vials and stored at room temperature, at 40° C. and at 50° C. At various measured times, the amount of the peptide copper complex and of the preservatives was determined.

Amounts when Stored at 40° C. (0 weeks) [mg/mL]	Amounts when Stored at 40° C. (1 week) [mg/mL]	Amounts when Stored at 40° C. (2 weeks) [mg/mL]	Amounts when Stored at 40° C. (3 weeks) [mg/mL]	Amounts when Stored at 40° C. (4 weeks) [mg/mL]	Amounts when Stored at 50° C. (0 weeks) [mg/mL]	Amounts when Stored at 50° C. (1 week) [mg/mL]	Amounts when Stored at 50° C. (2 weeks) [mg/mL]	Amounts when Stored at 50° C. (3 weeks) [mg/mL]	Amounts when Stored at 50° C. (4 weeks) [mg/mL]	Amounts when Stored at Room Temperature (0 weeks) [mg/mL]	Amounts when Stored at Room Temperature (1 week) [mg/mL]	Amounts when Stored at Room Temperature (2 weeks) [mg/mL]	Amounts when Stored at Room Temperature (3 weeks) [mg/mL]	Amounts when Stored at Room Temperature (4 weeks) [mg/mL]	Amounts when Stored at Room Temperature (28 weeks) [mg/mL]	Molecule
1.83	1.79	1.80	1.77	1.75	1.83	1.77	1.70	1.65	1.63	1.83	1.81	1.84	1.82	1.81	1.80	COC(=O)c1ccc(O)cc1 [Methylparaben, methylparaben]
0.18	0.18	0.18	0.18	0.18	0.18	0.18	0.17	0.17	0.17	0.18	0.18	0.18	0.18	0.18	0.18	CCCOC(=O)c1ccc(O)cc1 [Propylparaben, propylparaben]

Molecule	Amounts when Stored at 40° C. (0 weeks) [mg/mL]	Amounts when Stored at 40° C. (1 week) [mg/mL]	Amounts when Stored at 40° C. (2 weeks) [mg/mL]	Amounts when Stored at 40° C. (3 weeks) [mg/mL]	Amounts when Stored at 40° C. (4 weeks) [mg/mL]	Amounts when Stored at 50° C. (0 weeks) [mg/mL]	Amounts when Stored at 50° C. (1 week) [mg/mL]	Amounts when Stored at 50° C. (2 weeks) [mg/mL]	Amounts when Stored at 50° C. (3 weeks) [mg/mL]	Amounts when Stored at 50° C. (4 weeks) [mg/mL]	Amounts when Stored at Room Temperature (0 weeks) [mg/mL]	Amounts when Stored at Room Temperature (1 week) [mg/mL]	Amounts when Stored at Room Temperature (2 weeks) [mg/mL]	Amounts when Stored at Room Temperature (3 weeks) [mg/mL]	Amounts when Stored at Room Temperature (4 weeks) [mg/mL]	Amounts when Stored at Room Temperature (28 weeks) [mg/mL]
glycyl-L-histidyl-L-lysine:copper(II)	1.06	1.04	1.07	1.06	1.06	1.06	1.05	1.04	1.04	1.04	1.06	1.05	1.06	1.07	1.07	1.05
